# Activity calls are given as the source filed them.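 Rule for the calls: active = no band for the ATF-6 stress protein on the immunoblot of thapsigargin-stressed cell lysates; inactive = ATF-6 band still present, cleavage not blocked.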
# Tested on: CSM14.1 cells, thapsigargin, ATF-6 Western blot
# Test: blockers of ER stress ATF-6 induction – cell-based, thapsigargin, Western blot, mechanism study for ER stress cell death inhibitors, late-stage follow-up (AID 1390)
row,SMILES,outcome
1,COc1ccc(C2CC(=O)C3=C(C2)Nc2ccccc2NC3c2ccccc2C(F)(F)F)cc1OC (stereo unspecified),inactive
2,COc1ccc(C2CC(=O)C3=C(C2)Nc2ccccc2NC3c2cccc(Oc3ccccc3)c2)cc1OC (stereo unspecified),inactive
3,CC1(C)CC(=O)C2=C(C1)Nc1ccccc1NC2c1ccc(-c2ccccc2)cc1 (stereo unspecified),inactive
4,COc1ccc(C2CC(=O)C3=C(C2)Nc2ccccc2NC3c2cc(C)ccc2C)cc1 (stereo unspecified),inactive
5,COc1ccc(C2CC(=O)C3=C(C2)Nc2ccccc2NC3c2cccc(Br)c2)cc1OC (stereo unspecified),inactive
6,CCOc1cc(C2Nc3ccccc3NC3=C2C(=O)CC(c2ccc(OC)cc2)C3)cc(Cl)c1O (stereo unspecified),inactive
7,COc1ccc(C2CC(=O)C3=C(C2)Nc2ccccc2NC3c2cccc(C(F)(F)F)c2)cc1OC (stereo unspecified),inactive
8,CCCOc1ccc(C2Nc3ccccc3NC3=C2C(=O)CC(c2ccc(OC)c(OC)c2)C3)cc1 (stereo unspecified),inactive
9,CSc1ccc(C2Nc3ccccc3NC3=C2C(=O)CC(c2ccccc2)C3)cc1 (stereo unspecified),inactive
10,CCOc1cccc(C2Nc3ccccc3NC3=C2C(=O)CC(c2ccc(OC)cc2)C3)c1 (stereo unspecified),inactive
11,O=C1CC(c2ccccc2)CC2=C1C(c1c(F)cccc1Cl)Nc1ccccc1N2 (stereo unspecified),inactive
